Reference: PubChem BioAssay (NCI)
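Dose response: 5 concentrations. Exposure: 48 h. Format: 96-well plates. Endpoint: linear interpolation; highest concentration if not reached. TGI: total growth inhibition.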 Where a SMILES comes first, the peptide text is derived from it. The star is where a group is joined. Boc = CC(C)(C)OC(=O)*; Bn = c1ccc(C*)cc1

What was measured:
Assay in all cases: NCI tumour cell line growth inhibition, 48 h
ACHN renal = system: ACHN renal
COLO 205 colon = system: COLO 205 colon
DU-145 prostate = system: DU-145 prostate
HT29 colon = system: HT29 colon
MDA-MB-435 = system: MDA-MB-435
OVCAR-3 ovarian = system: OVCAR-3 ovarian
OVCAR-4 ovarian = system: OVCAR-4 ovarian
SK-MEL-2 melanoma = system: SK-MEL-2 melanoma
SN12C renal = system: SN12C renal
SW-620 colon = system: SW-620 colon
U251 CNS = system: U251 CNS
UACC-62 melanoma = system: UACC-62 melanoma
SK-OV-3 ovarian = system: SK-OV-3 ovarian

Compound	TGI (ACHN renal) [µM]	TGI (COLO 205 colon) [µM]	TGI (DU-145 prostate) [µM]	TGI (HT29 colon) [µM]	TGI (MDA-MB-435) [µM]	TGI (OVCAR-3 ovarian) [µM]	TGI (OVCAR-4 ovarian) [µM]	TGI (SK-MEL-2 melanoma) [µM]	TGI (SN12C renal) [µM]	TGI (SW-620 colon) [µM]	TGI (U251 CNS) [µM]	TGI (UACC-62 melanoma) [µM]	TGI (SK-OV-3 ovarian) [µM]
NC(N)=NS(=O)(=O)c1ccc(NNc2c3ccccc3nc3c(C(=O)Nc4ccc(S(=O)(=O)Nc5ncccn5)cc4)cccc23)cc1	> 100	> 100	> 100	54.6	> 100	> 100	> 100	> 100	> 100	> 100	> 100	48.2	
COc1cc(C2c3cc4c(cc3OC(N3CCCCC3)C2C)OCO4)cc(OC)c1O (stereo not given)	23.1	38.6	49.6	> 37.5	5.92	19.8	> 61.2	25.2	27.5	21.9	> 64.6		19.9
CC1CC(OP(=O)(OCc2ccccc2)OCc2ccccc2)[C@@H](OCc2ccccc2)C(OCc2ccccc2)C1OCc1ccccc1 (stereo not given in full)	> 100	> 100	> 100	> 100			> 100	> 100	> 100	> 100	> 100	> 100	> 100
COc1cc(C2C3C=CC=C4CC=CC(=C43)C3CCC(=O)N32)cc(OC)c1OC (stereo not given)	> 100		> 100	> 100	> 100	> 100		> 100	> 100	> 100	> 100	> 100	> 100
C=CCCON(C(=O)OC(C)(C)C)C(C)(C)C	> 100	> 100	> 100	> 100	> 100	> 100		> 100	> 100	> 100	> 100	> 100	> 100
Cc1ccc(-c2c(C#N)c(-c3ccc(C)cc3)n(NS(=O)(=O)c3ccccc3)c(=O)c2C#N)cc1	> 100	> 100		> 100	> 100		> 100	> 100	> 100	> 100	> 100	> 100	> 100
CCCC(=O)NC(NC1CCCCC1)(C(=O)OCC)C(F)(F)F (stereo not given)	> 100		> 100	> 100	> 100	> 100	> 100	> 100	> 100	> 100	> 100		> 100
COC(=O)c1ccc(/C=C/c2cc(O)ccc2O)cc1	14.1	22.8	> 100	> 100	13.5	6.86	15.9	> 31.6	18.8	18.6	8.44	17.4	
CC1=NN(c2nc(N)nc(/C(C#N)=C\c3ccc([N+](=O)[O-])s3)n2)C(C)(C)C1	0.719	1.61	0.597	0.722	0.405	0.404	12.1	1.66	1.51		0.221	2.25	49.3
COC(=O)C(CC(C)C)NC(=O)C(C)NC(=O)C(Cc1ccc(OCc2ccccc2)cc1)NC(=O)C(COCc1ccccc1)NC(=O)OC(C)(C)C (stereo not given) (Boc-S(Bn)Y(Bn)AL-OMe; configuration not given here)	> 100	> 100	> 100	> 100	> 100	> 100	> 100		> 100	> 100	> 100	> 100	> 100
CCn1c(-c2ccccc2)cs/c1=N\C(P(=O)(O)O)P(=O)(O)O	> 100	> 100	> 100	> 100	> 100	> 100				> 100	> 100	> 100	> 100
CC1(C)[C@@H](Cn2ccc(=O)[nH]c2=O)CC[C@@]1(C)CO	> 100	> 100	> 100		> 100	> 100	> 100	> 100	> 100	> 100	> 100	> 100	> 100
CC(=O)OC(OC(C)=O)c1ccc2ccc3cccc4ccc1c2c34	65.8	58.4	45.8	38.3	37.9	> 100			> 100		41.8	27.3	53.4
O=C1C=CC(=O)c2c1ccc1c3ccccc3n(CCCCCn3c4ccccc4c4ccc5c(c43)C(=O)C=CC5=O)c21	28.6	34.9	> 100	85.5	46.3	34.4		44.8	41.5	26.8	54	71.8	> 100
